This note sets out measurements from US20220348595A1, “COMPOUNDS AND METHODS FOR THE TARGETED DEGRADATION OF ESTROGEN RECEPTORS” (Endotarget Inc., priority 2021, published 2022).

Assay [1] concerns MCF-7 breast cancer cells. The assay is described as follows: MCF-7 proliferation / cell viability assay. To be noted: Homo sapiens, MCF7; MCF-7 proliferation with 0.1 nM 17-beta estradiol; read-out: IC50 (anti-proliferation). It is filed as cell-based. Put shortly:
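MCF-7 cells in 5% FBS DMEM were exposed for 5 days to compound at 6 doses from 10^−10 M to 10^−5 M, with DMSO as vehicle. Viable cells were counted by Coulter counter. Survival ratio = treated/vehicle viable cell number, vehicle set to 100%.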

Assay [2] deals with T1, ERα (Homo sapiens, UniProt P03372).
T1 construct: endogenous in cells; host or cells: MCF-7
T1 sequence (P03372 1-595): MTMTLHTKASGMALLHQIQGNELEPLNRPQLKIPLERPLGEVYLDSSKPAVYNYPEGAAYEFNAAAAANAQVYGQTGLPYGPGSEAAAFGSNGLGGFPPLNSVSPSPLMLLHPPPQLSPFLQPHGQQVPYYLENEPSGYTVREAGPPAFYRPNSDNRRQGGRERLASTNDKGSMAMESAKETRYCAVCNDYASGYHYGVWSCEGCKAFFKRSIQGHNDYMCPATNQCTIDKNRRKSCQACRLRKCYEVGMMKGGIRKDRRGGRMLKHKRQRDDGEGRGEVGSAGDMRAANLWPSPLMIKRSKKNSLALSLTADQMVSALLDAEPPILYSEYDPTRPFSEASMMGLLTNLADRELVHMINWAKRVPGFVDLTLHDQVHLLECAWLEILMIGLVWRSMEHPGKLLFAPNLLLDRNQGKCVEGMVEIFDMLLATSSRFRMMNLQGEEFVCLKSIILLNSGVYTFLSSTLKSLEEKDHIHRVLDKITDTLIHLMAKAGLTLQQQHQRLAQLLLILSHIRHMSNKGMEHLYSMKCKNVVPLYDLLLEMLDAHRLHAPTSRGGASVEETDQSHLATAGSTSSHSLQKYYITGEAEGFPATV
The assay is described as follows: ER degradation in MCF-7 cells (Western blot). The format is cell-based. Conditions: for DC50: ER degradation, 24 hours; for Dmax: MCF7, Maximal ER degradation, read-out: Dmax. Put shortly:
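MCF-7 cells treated with a range of compound concentrations for 24 hours, then lysed; 50 μg protein probed for ERα by Western blot with infrared imaging. DC50 is concentration giving 50% ER reduction; Dmax is the highest percentage reduction over the range tested.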

The target of assay [3] is T2, ER (Homo sapiens, UniProt P03372).
T2 construct: endogenous in cells; host or cells: T47d-kb-Luc (T47D stably transfected with a luciferase reporter gene only)
T2 sequence (P03372 1-595): T1 sequence (P03372 1-595)
The assay is described as follows: ER antagonism (T47D ERE luciferase), T47d-kb-Luc cells. To be noted: read-out: IC50 (ER antagonistm). It is filed as cell-based. The method in brief: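 Stably transfected T47d-kb-Luc human breast cancer cells were used, and antagonism was measured as inhibition of estradiol-driven activity. Data were normalised to the estradiol control. Five concentrations were tested in quadruplicate across at least three experiments.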

The subject of assay [4] is ST1799 PDX tumor. The assay is described as follows: ST1799 patient derived breast tumor xenograft. It is filed as in vivo. Conditions: single agent versus vehicle control, p=0.0323; athymic nude female mice. From the text: In Vivo Efficacy of Exemplary Compound 69 in ST1799 Patient Derived Breast Tumor Xenocraft
Patient-Derived Xenograft tumor fragments were harvested from host animals and implanted into 6-12 week old athymic nude female mice (Charles River NU(NCr)-Foxn1^nu). Treatment initiated at a mean tumor volume of approximately 175-300 mm^3.
For orientation: In xenograft studies the graft and the host belong to different species.

Each structure is given as a SMILES string.

The term DC50 denotes the concentration giving 50% degradation. The term Dmax denotes the largest share of the target that was removed.

As to `CC/C(=C(/c1ccc(OCCN2CCN(CC3CCN(c4ccc5c(c4)CN([C@H]4CCC(=O)NC4=O)C5=O)CC3)CC2)cc1)c1ccc(B(O)O)cc1)c1ccccc1` [Compound 69], the IC50 in assay [1] and in assay [3] was under 10 nM in each case. Besides, in assay [2], the 50% degradation concentration (DC50) was under 10 nM. For the same molecule, the greatest degradation seen (Dmax) in assay [2] is over 90%. The tumor growth inhibition result in assay [4] was “statistically significant tumor growth inhibition”.
For the molecule `CC/C(=C(\c1ccc(B(O)O)cc1)c1ccc(N2CCN(C(=O)N3CCC(N4CCN(c5ccc6c(c5)CN(C5CCC(=O)NC5=O)C6=O)CC4)CC3)CC2)cc1)c1ccccc1` (stereo not drawn) [Compound 110, (Z)-(4-(1-(4-(4-(4-(4-(2-(2,6-dioxopiperidin-3-yl)-1-oxoisoindolin-5-yl)piperazin-1-yl)piperidine-1-carbonyl)piperazin-1-yl)phenyl)-2-phenylbut-1-en-1-yl)phenyl)boronic acid], the IC50 in assay [1] lay within 10 to 50 nM. Moreover, in assay [2], the 50% degradation concentration (DC50) was in the range of 10 to 50 nM and the Dmax is over 90%. Also, the IC50 in assay [3] was under 10 nM.
`CC/C(=C(/c1ccc(O)cc1)c1ccc(N2CCN(C(=O)N3CCC(N4CCN(c5ccc6c(c5)CN(C5CCC(=O)NC5=O)C6=O)CC4)CC3)CC2)cc1)c1ccccc1` (stereo not drawn) [Compound 111, (Z)-3-(5-(4-(1-(4-(4-(1-(4-hydroxyphenyl)-2-phenylbut-1-en-1-yl)phenyl)piperazine-1-carbonyl)piperidin-4-yl)piperazin-1-yl)-1-oxoisoindolin-2-yl)piperidine-2,6-dione]: in assay [1], the IC50 is 10 to 50 nM. Also, in assay [2], the half-maximal degradation concentration (DC50) is 10 to 50 nM and the Dmax is over 90%. For the same molecule, the IC50 in assay [3] is under 10 nM.
Turning to `CC/C(=C(/c1ccc(B(O)O)cc1)c1ccc(N2CCN(C(=O)N3CCC(N4CCN(c5ccc6c(c5)CN(C5CCC(=O)NC5=O)C6=O)CC4)CC3)CC2)cc1)c1ccccc1` (stereo not drawn) [Compound 112, (E)-(4-(1-(4-(4-(4-(4-(2-(2,6-dioxopiperidin-3-yl)-1-oxoisoindolin-5-yl)piperazin-1-yl)piperidine-1-carbonyl)piperazin-1-yl)phenyl)-2-phenylbut-1-en-1-yl)phenyl)boronic acid], the IC50 in assay [1] was 10 to 50 nM. Further, in assay [2], the DC50 lay in the range of 10 to 50 nM and the maximal degradation (Dmax) was over 90%. Also, in assay [3], the IC50 was under 10 nM.
In the case of `CC/C(=C(\c1ccc(O)cc1)c1ccc(N2CCN(C(=O)N3CCC(CN4CCN(c5ccc6c(c5)CN(C5CCC(=O)NC5=O)C6=O)CC4)CC3)CC2)cc1)c1ccccc1` (stereo not drawn) [Compound 113, (E)-3-(5-(4-((1-(4-(4-(1-(4-hydroxyphenyl)-2-phenylbut-1-en-1-yl)phenyl)piperazine-1-carbonyl)piperidin-4-yl)methyl)piperazin-1-yl)-1-oxoisoindolin-2-yl)piperidine-2,6-dione], the IC50 in assay [1] and in assay [3] was under 10 nM in each case. The same molecule gave a 50% degradation concentration (DC50) in assay [2] of under 10 nM. Moreover, the Dmax in assay [2] is over 90%.
As for `CC/C(=C(\c1ccc(B(O)O)cc1)c1ccc(N2CCN(C(=O)N3CCC(CN4CCN(c5ccc6c(c5)CN(C5CCC(=O)NC5=O)C6=O)CC4)CC3)CC2)cc1)c1ccccc1` (stereo not drawn) [Compound 114, (Z)-(4-(1-(4-(4-(4-((4-(2-(2,6-dioxopiperidin-3-yl)-1-oxoisoindolin-5-yl)piperazin-1-yl)methyl)piperidine-1-carbonyl)piperazin-1-yl)phenyl)-2-phenylbut-1-en-1-yl)phenyl)boronic acid], in assay [1], the IC50 is under 10 nM. Besides, in assay [2], the DC50 was under 10 nM and the Dmax is over 90%. In addition, the IC50 in assay [3] was under 10 nM.
With `CC/C(=C(/c1ccc(O)cc1)c1ccc(N2CCN(C(=O)N3CCC(CN4CCN(c5ccc6c(c5)CN(C5CCC(=O)NC5=O)C6=O)CC4)CC3)CC2)cc1)c1ccccc1` (stereo not drawn) [Compound 115, (Z)-3-(5-(4-((1-(4-(4-(1-(4-hydroxyphenyl)-2-phenylbut-1-en-1-yl)phenyl)piperazine-1-carbonyl)piperidin-4-yl)methyl)piperazin-1-yl)-1-oxoisoindolin-2-yl)piperidine-2,6-dione], the IC50 in assay [1] is under 10 nM. Besides, in assay [2], the 50% degradation concentration (DC50) is under 10 nM and the Dmax is over 90%. For the same molecule, in assay [3], the IC50 is under 10 nM.
For the molecule `CC/C(=C(/c1ccc(B(O)O)cc1)c1ccc(N2CCN(C(=O)N3CCC(CN4CCN(c5ccc6c(c5)CN(C5CCC(=O)NC5=O)C6=O)CC4)CC3)CC2)cc1)c1ccccc1` (stereo not drawn) [Compound 116, (E)-(4-(1-(4-(4-(4-((4-(2-(2,6-dioxopiperidin-3-yl)-1-oxoisoindolin-5-yl)piperazin-1-yl)methyl)piperidine-1-carbonyl)piperazin-1-yl)phenyl)-2-phenylbut-1-en-1-yl)phenyl)boronic acid], in assay [1], the IC50 is under 10 nM. In assay [2], the DC50 is under 10 nM and the Dmax was over 90%. For the same molecule, the IC50 in assay [3] was under 10 nM.
